Legend:
Experiment in all cases: Test of herbicidal activities (greenhouse pot method)
Type in all cases: in vivo
Settings in all cases: single dose 300 g ai./h, treated before/after germination, 15 days later, greenhouse pot
Amaranthus retroflexus = system: Amaranthus retroflexus
How it was run: (§1)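 Greenhouse pot test at a single dose of 300 g ai./h, applied by spray tower pre- or post-emergence, with grasses at the 2-leaf stage, in triplicate with a blank control. Plants were kept at 15–30 °C. Inhibition was graded after 15 days: A 90–100%, B 80–<90%, C 60–<80%, D 50–<60%, E <50%.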

Brassica juncea = system: Brassica juncea
How it was run: as §1

Chenopodium album = system: Chenopodium album
How it was run: as §1

Digiatria sanguinalis = system: Digiatria sanguinalis
How it was run: as §1

Echinochloa crusgalli = system: Echinochloa crusgalli
How it was run: as §1

Setaria viridis = system: Setaria viridis
How it was run: as §1

CCOC(=O)C(C)S(=O)(=O)c1nc2cc(-n3nc(C)n(C(F)F)c3=O)c(Cl)cc2s1 (stereo not drawn) [Compound 67]
Herbicidal activity Amaranthus retroflexus (inhibition level) (Amaranthus retroflexus): C (60 ≦ C < 80%)
Herbicidal activity Brassica juncea (inhibition level) (Brassica juncea): B (80 ≦ B < 90%)
Herbicidal activity Chenopodium album (inhibition level) (Chenopodium album): B (80 ≦ B < 90%)
Herbicidal activity Digiatria sanguinalis (inhibition level) (Digiatria sanguinalis): A (90 ≦ A ≦ 100%)
Herbicidal activity Echinochloa crusgalli (inhibition level) (Echinochloa crusgalli): C (60 ≦ C < 80%)
Herbicidal activity Setaria viridis (inhibition level) (Setaria viridis): B (80 ≦ B < 90%)

Cc1nn(-c2cc3nc(S(C)(=O)=O)sc3cc2Cl)c(=O)n1C(F)F [Compound 68]
Herbicidal activity Amaranthus retroflexus (inhibition level) (Amaranthus retroflexus): A (90 ≦ A ≦ 100%)
Herbicidal activity Brassica juncea (inhibition level) (Brassica juncea): B (80 ≦ B < 90%)
Herbicidal activity Chenopodium album (inhibition level) (Chenopodium album): C (60 ≦ C < 80%)
Herbicidal activity Digiatria sanguinalis (inhibition level) (Digiatria sanguinalis): B (80 ≦ B < 90%)
Herbicidal activity Echinochloa crusgalli (inhibition level) (Echinochloa crusgalli): A (90 ≦ A ≦ 100%)
Herbicidal activity Setaria viridis (inhibition level) (Setaria viridis): B (80 ≦ B < 90%)

CCCCS(=O)(=O)c1nc2cc(-n3nc(C)n(C(F)F)c3=O)c(Cl)cc2s1 [Compound 69]
Herbicidal activity Amaranthus retroflexus (inhibition level) (Amaranthus retroflexus): A (90 ≦ A ≦ 100%)
Herbicidal activity Brassica juncea (inhibition level) (Brassica juncea): B (80 ≦ B < 90%)
Herbicidal activity Chenopodium album (inhibition level) (Chenopodium album): C (60 ≦ C < 80%)
Herbicidal activity Digiatria sanguinalis (inhibition level) (Digiatria sanguinalis): B (80 ≦ B < 90%)
Herbicidal activity Echinochloa crusgalli (inhibition level) (Echinochloa crusgalli): A (90 ≦ A ≦ 100%)
Herbicidal activity Setaria viridis (inhibition level) (Setaria viridis): B (80 ≦ B < 90%)

CCOC(=O)CS(=O)(=O)c1nc2cc(-n3nc(C)n(C(F)F)c3=O)c(Cl)cc2s1 [Compound 70]
Herbicidal activity Amaranthus retroflexus (inhibition level) (Amaranthus retroflexus): B (80 ≦ B < 90%)
Herbicidal activity Brassica juncea (inhibition level) (Brassica juncea): B (80 ≦ B < 90%)
Herbicidal activity Chenopodium album (inhibition level) (Chenopodium album): B (80 ≦ B < 90%)
Herbicidal activity Digiatria sanguinalis (inhibition level) (Digiatria sanguinalis): B (80 ≦ B < 90%)
Herbicidal activity Echinochloa crusgalli (inhibition level) (Echinochloa crusgalli): B (80 ≦ B < 90%)
Herbicidal activity Setaria viridis (inhibition level) (Setaria viridis): B (80 ≦ B < 90%)

C=CCS(=O)(=O)c1nc2cc(-n3nc(C)n(C(F)F)c3=O)c(Cl)cc2s1 [Compound 71]
Herbicidal activity Amaranthus retroflexus (inhibition level) (Amaranthus retroflexus): C (60 ≦ C < 80%)
Herbicidal activity Brassica juncea (inhibition level) (Brassica juncea): B (80 ≦ B < 90%)
Herbicidal activity Chenopodium album (inhibition level) (Chenopodium album): B (80 ≦ B < 90%)
Herbicidal activity Digiatria sanguinalis (inhibition level) (Digiatria sanguinalis): C (60 ≦ C < 80%)
Herbicidal activity Echinochloa crusgalli (inhibition level) (Echinochloa crusgalli): C (60 ≦ C < 80%)
Herbicidal activity Setaria viridis (inhibition level) (Setaria viridis): B (80 ≦ B < 90%)

CCCS(=O)(=O)c1nc2cc(-n3nc(C)n(C(F)F)c3=O)c(Cl)cc2s1 [Compound 72]
Herbicidal activity Amaranthus retroflexus (inhibition level) (Amaranthus retroflexus): A (90 ≦ A ≦ 100%)
Herbicidal activity Brassica juncea (inhibition level) (Brassica juncea): B (80 ≦ B < 90%)
Herbicidal activity Chenopodium album (inhibition level) (Chenopodium album): B (80 ≦ B < 90%)
Herbicidal activity Digiatria sanguinalis (inhibition level) (Digiatria sanguinalis): B (80 ≦ B < 90%)
Herbicidal activity Echinochloa crusgalli (inhibition level) (Echinochloa crusgalli): A (90 ≦ A ≦ 100%)
Herbicidal activity Setaria viridis (inhibition level) (Setaria viridis): C (60 ≦ C < 80%)

Cc1nn(-c2cc3nc(SCc4cccs4)sc3cc2F)c(=O)n1C(F)F [Compound 73]
Herbicidal activity Amaranthus retroflexus (inhibition level) (Amaranthus retroflexus): A (90 ≦ A ≦ 100%)
Herbicidal activity Brassica juncea (inhibition level) (Brassica juncea): B (80 ≦ B < 90%)
Herbicidal activity Chenopodium album (inhibition level) (Chenopodium album): A (90 ≦ A ≦ 100%)
Herbicidal activity Digiatria sanguinalis (inhibition level) (Digiatria sanguinalis): A (90 ≦ A ≦ 100%)
Herbicidal activity Echinochloa crusgalli (inhibition level) (Echinochloa crusgalli): B (80 ≦ B < 90%)
Herbicidal activity Setaria viridis (inhibition level) (Setaria viridis): B (80 ≦ B < 90%)

Cc1nn(-c2cc3nc(SCn4cnc5ccccc5c4=O)sc3cc2F)c(=O)n1C(F)F [Compound 74]
Herbicidal activity Amaranthus retroflexus (inhibition level) (Amaranthus retroflexus): B (80 ≦ B < 90%)
Herbicidal activity Brassica juncea (inhibition level) (Brassica juncea): B (80 ≦ B < 90%)
Herbicidal activity Chenopodium album (inhibition level) (Chenopodium album): C (60 ≦ C < 80%)
Herbicidal activity Digiatria sanguinalis (inhibition level) (Digiatria sanguinalis): B (80 ≦ B < 90%)
Herbicidal activity Echinochloa crusgalli (inhibition level) (Echinochloa crusgalli): A (90 ≦ A ≦ 100%)
Herbicidal activity Setaria viridis (inhibition level) (Setaria viridis): A (90 ≦ A ≦ 100%)

COCCSc1nc2cc(-n3nc(C)n(C(F)F)c3=O)c(Cl)cc2s1 [Compound 76]
Herbicidal activity Amaranthus retroflexus (inhibition level) (Amaranthus retroflexus): A (90 ≦ A ≦ 100%)
Herbicidal activity Brassica juncea (inhibition level) (Brassica juncea): C (60 ≦ C < 80%)
Herbicidal activity Chenopodium album (inhibition level) (Chenopodium album): C (60 ≦ C < 80%)
Herbicidal activity Digiatria sanguinalis (inhibition level) (Digiatria sanguinalis): A (90 ≦ A ≦ 100%)
Herbicidal activity Echinochloa crusgalli (inhibition level) (Echinochloa crusgalli): A (90 ≦ A ≦ 100%)
Herbicidal activity Setaria viridis (inhibition level) (Setaria viridis): B (80 ≦ B < 90%)

CCOCCSc1nc2cc(-n3nc(C)n(C(F)F)c3=O)c(Cl)cc2s1 [Compound 78]
Herbicidal activity Amaranthus retroflexus (inhibition level) (Amaranthus retroflexus): A (90 ≦ A ≦ 100%)
Herbicidal activity Brassica juncea (inhibition level) (Brassica juncea): D (50 ≦ D < 60%)
Herbicidal activity Chenopodium album (inhibition level) (Chenopodium album): B (80 ≦ B < 90%)
Herbicidal activity Digiatria sanguinalis (inhibition level) (Digiatria sanguinalis): A (90 ≦ A ≦ 100%)
Herbicidal activity Echinochloa crusgalli (inhibition level) (Echinochloa crusgalli): C (60 ≦ C < 80%)
Herbicidal activity Setaria viridis (inhibition level) (Setaria viridis): A (90 ≦ A ≦ 100%)

CSc1nc2cc(-n3nc(C)n(C(F)F)c3=O)c(Br)cc2s1 [Compound 79]
Herbicidal activity Amaranthus retroflexus (inhibition level) (Amaranthus retroflexus): B (80 ≦ B < 90%)
Herbicidal activity Brassica juncea (inhibition level) (Brassica juncea): B (80 ≦ B < 90%)
Herbicidal activity Chenopodium album (inhibition level) (Chenopodium album): C (60 ≦ C < 80%)
Herbicidal activity Digiatria sanguinalis (inhibition level) (Digiatria sanguinalis): A (90 ≦ A ≦ 100%)
Herbicidal activity Echinochloa crusgalli (inhibition level) (Echinochloa crusgalli): B (80 ≦ B < 90%)
Herbicidal activity Setaria viridis (inhibition level) (Setaria viridis): B (80 ≦ B < 90%)

CCSc1nc2cc(-n3nc(C)n(C(F)F)c3=O)c(Br)cc2s1 [Compound 80]
Herbicidal activity Amaranthus retroflexus (inhibition level) (Amaranthus retroflexus): A (90 ≦ A ≦ 100%)
Herbicidal activity Brassica juncea (inhibition level) (Brassica juncea): A (90 ≦ A ≦ 100%)
Herbicidal activity Chenopodium album (inhibition level) (Chenopodium album): E (E < 50%)
Herbicidal activity Digiatria sanguinalis (inhibition level) (Digiatria sanguinalis): B (80 ≦ B < 90%)
Herbicidal activity Echinochloa crusgalli (inhibition level) (Echinochloa crusgalli): A (90 ≦ A ≦ 100%)
Herbicidal activity Setaria viridis (inhibition level) (Setaria viridis): A (90 ≦ A ≦ 100%)

CCCSc1nc2cc(-n3nc(C)n(C(F)F)c3=O)c(Br)cc2s1 [Compound 81]
Herbicidal activity Amaranthus retroflexus (inhibition level) (Amaranthus retroflexus): A (90 ≦ A ≦ 100%)
Herbicidal activity Brassica juncea (inhibition level) (Brassica juncea): A (90 ≦ A ≦ 100%)
Herbicidal activity Chenopodium album (inhibition level) (Chenopodium album): B (80 ≦ B < 90%)
Herbicidal activity Digiatria sanguinalis (inhibition level) (Digiatria sanguinalis): D (50 ≦ D < 60%)
Herbicidal activity Echinochloa crusgalli (inhibition level) (Echinochloa crusgalli): B (80 ≦ B < 90%)
Herbicidal activity Setaria viridis (inhibition level) (Setaria viridis): B (80 ≦ B < 90%)

CCOC(=O)CSc1nc2cc(-n3nc(C)n(C(F)F)c3=O)c(Br)cc2s1 [Compound 82]
Herbicidal activity Amaranthus retroflexus (inhibition level) (Amaranthus retroflexus): A (90 ≦ A ≦ 100%)
Herbicidal activity Brassica juncea (inhibition level) (Brassica juncea): B (80 ≦ B < 90%)
Herbicidal activity Chenopodium album (inhibition level) (Chenopodium album): C (60 ≦ C < 80%)
Herbicidal activity Digiatria sanguinalis (inhibition level) (Digiatria sanguinalis): A (90 ≦ A ≦ 100%)
Herbicidal activity Echinochloa crusgalli (inhibition level) (Echinochloa crusgalli): A (90 ≦ A ≦ 100%)
Herbicidal activity Setaria viridis (inhibition level) (Setaria viridis): A (90 ≦ A ≦ 100%)

CCCCCCSc1nc2cc(-n3nc(C)n(C(F)F)c3=O)c(F)cc2s1 [Compound 83]
Herbicidal activity Amaranthus retroflexus (inhibition level) (Amaranthus retroflexus): A (90 ≦ A ≦ 100%)
Herbicidal activity Brassica juncea (inhibition level) (Brassica juncea): C (60 ≦ C < 80%)
Herbicidal activity Chenopodium album (inhibition level) (Chenopodium album): A (90 ≦ A ≦ 100%)
Herbicidal activity Digiatria sanguinalis (inhibition level) (Digiatria sanguinalis): D (50 ≦ D < 60%)
Herbicidal activity Echinochloa crusgalli (inhibition level) (Echinochloa crusgalli): B (80 ≦ B < 90%)
Herbicidal activity Setaria viridis (inhibition level) (Setaria viridis): A (90 ≦ A ≦ 100%)

CCSc1nc2cc(-n3nc(C)n(C(F)F)c3=O)c(F)cc2s1 [Compound 84]
Herbicidal activity Amaranthus retroflexus (inhibition level) (Amaranthus retroflexus): B (80 ≦ B < 90%)
Herbicidal activity Brassica juncea (inhibition level) (Brassica juncea): C (60 ≦ C < 80%)
Herbicidal activity Chenopodium album (inhibition level) (Chenopodium album): A (90 ≦ A ≦ 100%)
Herbicidal activity Digiatria sanguinalis (inhibition level) (Digiatria sanguinalis): A (90 ≦ A ≦ 100%)
Herbicidal activity Echinochloa crusgalli (inhibition level) (Echinochloa crusgalli): A (90 ≦ A ≦ 100%)
Herbicidal activity Setaria viridis (inhibition level) (Setaria viridis): B (80 ≦ B < 90%)

CCCCCCSc1nc2cc(-n3nc(C)n(C(F)F)c3=O)c(Cl)cc2s1 [Compound 85]
Herbicidal activity Amaranthus retroflexus (inhibition level) (Amaranthus retroflexus): B (80 ≦ B < 90%)
Herbicidal activity Brassica juncea (inhibition level) (Brassica juncea): B (80 ≦ B < 90%)
Herbicidal activity Chenopodium album (inhibition level) (Chenopodium album): B (80 ≦ B < 90%)
Herbicidal activity Digiatria sanguinalis (inhibition level) (Digiatria sanguinalis): A (90 ≦ A ≦ 100%)
Herbicidal activity Echinochloa crusgalli (inhibition level) (Echinochloa crusgalli): B (80 ≦ B < 90%)
Herbicidal activity Setaria viridis (inhibition level) (Setaria viridis): A (90 ≦ A ≦ 100%)

CCSc1nc2cc(-n3nc(C)n(C(F)F)c3=O)c(Cl)cc2s1 [Compound 86]
Herbicidal activity Amaranthus retroflexus (inhibition level) (Amaranthus retroflexus): A (90 ≦ A ≦ 100%)
Herbicidal activity Brassica juncea (inhibition level) (Brassica juncea): A (90 ≦ A ≦ 100%)
Herbicidal activity Chenopodium album (inhibition level) (Chenopodium album): B (80 ≦ B < 90%)
Herbicidal activity Digiatria sanguinalis (inhibition level) (Digiatria sanguinalis): A (90 ≦ A ≦ 100%)
Herbicidal activity Echinochloa crusgalli (inhibition level) (Echinochloa crusgalli): A (90 ≦ A ≦ 100%)
Herbicidal activity Setaria viridis (inhibition level) (Setaria viridis): A (90 ≦ A ≦ 100%)

CCOC(=O)C(C)Sc1nc2cc(-n3nc(C)n(C(F)F)c3=O)c(Br)cc2s1 (stereo not drawn) [Compound 87]
Herbicidal activity Amaranthus retroflexus (inhibition level) (Amaranthus retroflexus): B (80 ≦ B < 90%)
Herbicidal activity Brassica juncea (inhibition level) (Brassica juncea): A (90 ≦ A ≦ 100%)
Herbicidal activity Chenopodium album (inhibition level) (Chenopodium album): B (80 ≦ B < 90%)
Herbicidal activity Digiatria sanguinalis (inhibition level) (Digiatria sanguinalis): B (80 ≦ B < 90%)
Herbicidal activity Echinochloa crusgalli (inhibition level) (Echinochloa crusgalli): B (80 ≦ B < 90%)
Herbicidal activity Setaria viridis (inhibition level) (Setaria viridis): A (90 ≦ A ≦ 100%)

C=CCSc1nc2cc(-n3nc(C)n(C(F)F)c3=O)c(Br)cc2s1 [Compound 88]
Herbicidal activity Amaranthus retroflexus (inhibition level) (Amaranthus retroflexus): A (90 ≦ A ≦ 100%)
Herbicidal activity Brassica juncea (inhibition level) (Brassica juncea): A (90 ≦ A ≦ 100%)
Herbicidal activity Chenopodium album (inhibition level) (Chenopodium album): B (80 ≦ B < 90%)
Herbicidal activity Digiatria sanguinalis (inhibition level) (Digiatria sanguinalis): A (90 ≦ A ≦ 100%)
Herbicidal activity Echinochloa crusgalli (inhibition level) (Echinochloa crusgalli): B (80 ≦ B < 90%)
Herbicidal activity Setaria viridis (inhibition level) (Setaria viridis): D (50 ≦ D < 60%)

CCOC(=O)C(C)Sc1nc2cc(-n3nc(C)n(C(F)F)c3=O)c(F)cc2s1 (stereo not drawn) [Compound 89]
Herbicidal activity Amaranthus retroflexus (inhibition level) (Amaranthus retroflexus): B (80 ≦ B < 90%)
Herbicidal activity Brassica juncea (inhibition level) (Brassica juncea): B (80 ≦ B < 90%)
Herbicidal activity Chenopodium album (inhibition level) (Chenopodium album): C (60 ≦ C < 80%)
Herbicidal activity Digiatria sanguinalis (inhibition level) (Digiatria sanguinalis): A (90 ≦ A ≦ 100%)
Herbicidal activity Echinochloa crusgalli (inhibition level) (Echinochloa crusgalli): A (90 ≦ A ≦ 100%)
Herbicidal activity Setaria viridis (inhibition level) (Setaria viridis): A (90 ≦ A ≦ 100%)

From patent US7666890B2, “Synthesis and herbicidal activity of 1- (2-substituted benzo[d]thiazol-5-yl)-1H-1,2,4-triazol-5(4H)-one derivatives” (Huazhong Normal University, priority 2007, dated 2010)
